Test results reported in patent US9897592B2, “Methods for identifying arthropod repellents and attractants, and compounds and compositions identified by such methods” (The Regents of the University of California, priority 2013, dated 2018).

Legend:
C. quinquefasciatus = assay: Semi-field two-choice greenhouse trapping; format: in vivo, Culex quinquefasciatus
Description: FIG. 4g is a schematic of two-choice greenhouse experiments with two counterflow geometry traps, in which mosquitoes were trapped overnight in odorant-baited and solvent (water)-baited traps.
Semi-field trapping: Two modified greenhouses at the Agricultural Experiment Station at the University of California, Riverside, were used as described previously^2, with modifications. Fifty laboratory-reared, mated, non-blood fed female C. quinquefasciatus aged 8-14 days and starved for 24 hrs were released each evening around 5 pm and traps collected at ˜7 am. Counter flow geometry traps baited with CO2 (250 ml min^−1, ˜670 mmol/hr) odorant were used as described^2, with modifications. Odorant solutions in water were dispensed from 20 cm long gauze wicks protruding from uncapped 50 ml tubes beneath the trap outflow. For each trial, one baited trap and one control trap (water-filled) were placed in each of two greenhouses (FIG. 4g). For two-choice CO2 trials, water was placed under both traps. For two-choice ethyl pyruvate trials, both traps expelled CO2, and one trap also released ethyl pyruvate from an open 2.8×7 cm glass vial. Since ethyl pyruvate has very low volatility pure compound was used to generate ˜1.7 mmol/hr. An empty vial was placed under control traps. Treatment position and trap were alternated across trials. Volume of solution lost from tubes containing 5%, 10%, or 20% cyclopentanone were measured after each trial and the average loss of molecules calculated respectively for 3 concentrations as (±s.d.) of 0.7 (±0.1), 1.7 (±0.4), and 3.8 (±0.3) mmol/hr, respectively. Preference index=(# mosquitoes in odor-baited trap−# mosquitoes in control trap)/(total # mosquitoes caught in both traps).
The efficacy of cyclopentanone as a lure was tested using traps in controlled semi-field experiments with C. quinquefasciatus, a mosquito present in Southern California, where the experiments took place. 50 female mosquitoes were released overnight in a modified greenhouse that contained two counter-flow geometry mosquito traps (FIG. 4g). One trap was baited with an evaporative lure of cyclopentanone diluted in water, and the second trap was baited with water alone.

cpA neuron [1] = assay: Single-sensillum recording: activation of cpA neuron by odorants; format: cell-based, Aedes aegypti
How it was run: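 Single-sensillum extracellular recordings from cp sensilla of adult female A. aegypti (Rockefeller), 3-12 days post-emergence. Odorants at 10^−2 in paraffin oil or water, 0.5-s pulses; solvent response subtracted, spikes counted; n=2-6, sensilla with <20 spikes s^−1 to negative control only.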

cpA neuron [2] = assay: cpA dose response in C. quinquefasciatus; format: cell-based, Culex quinquefasciatus
Experimental: FIG. 4d is a graph illustrating the dose responses of the cpA neuron to cyclopentanone in A. aegypti and C. quinquefasciatus, where n=5-6.
Adult female A. aegypti (Linnaeus 1762) (Rockefeller strain) A. gambiae sensu stricto Giles 1902 (G3 strain), or C. quinquefasciatus Say 1823 were tested 3-12 days post-emergence with single-sensillum extracellular recordings. Chemicals were obtained from Sigma-Aldrich at the highest purity (typically >99%) and were dissolved in paraffin oil or water. […] Response to clean beads was subtracted from the results reported. Only sensilla with cpA activity of <20 spikes s^−1 to negative control were considered for analysis.
Taken together, the strong and conserved cpA response, promising safety and fragrance profile, and ability to mimic CO2 activation made cyclopentanone an excellent candidate for behavioural testing.

[3] = system: mammalian cation channels; conditions: cited from earlier work
[4] = target: human acetylcholinesterase (Homo sapiens, UniProt P22303); conditions: cited from earlier work
Sequence of human acetylcholinesterase (P22303 32-614): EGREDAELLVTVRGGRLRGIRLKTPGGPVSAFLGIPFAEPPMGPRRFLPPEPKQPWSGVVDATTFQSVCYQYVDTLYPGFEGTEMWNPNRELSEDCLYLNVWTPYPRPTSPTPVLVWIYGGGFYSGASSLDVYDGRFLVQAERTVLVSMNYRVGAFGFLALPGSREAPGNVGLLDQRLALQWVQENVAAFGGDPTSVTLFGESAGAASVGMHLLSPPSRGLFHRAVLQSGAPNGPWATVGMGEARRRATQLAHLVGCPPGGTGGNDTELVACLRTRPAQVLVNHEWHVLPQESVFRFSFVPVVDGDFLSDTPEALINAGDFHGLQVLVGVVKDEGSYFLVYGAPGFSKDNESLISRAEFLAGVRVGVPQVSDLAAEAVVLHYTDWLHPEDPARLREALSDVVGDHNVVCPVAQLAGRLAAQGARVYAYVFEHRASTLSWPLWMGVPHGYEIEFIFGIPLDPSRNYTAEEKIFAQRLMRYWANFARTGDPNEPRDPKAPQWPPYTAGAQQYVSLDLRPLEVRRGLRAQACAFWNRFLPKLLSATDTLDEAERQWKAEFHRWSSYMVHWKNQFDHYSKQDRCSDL

## O=C1CCCC1 [Cyclopentanone]
C. quinquefasciatus; calculated from amount evaporated
  fold fewer molecules released than CO2 for comparable catch rate: ~176 fold
C. quinquefasciatus; evaporative lure in water, overnight
  trap preference, odorant-baited vs solvent-baited trap: preferred cyclopentanone over solvent-baited traps in a dose-dependent manner
C. quinquefasciatus; similar trials in parallel
  capture numbers relative to CO2-baited traps: comparable
cpA neuron [1]; A. aegypti cpA, 0.5-s pulses, odorants 10^−2 in paraffin oil or water, solvent response subtracted
  Activation (spikes s^−1): 120.1 spikes s^−1
cpA neuron [1]; A. aegypti dose response
  cpA activation: strong activator
cpA neuron [2]
  cpA activation: strong activator

## CCN(CC)C(=O)c1cccc(C)c1 [DEET, N,N-Diethyl-m-toluamide]
[3]
  inhibition of mammalian cation channels: inhibit
[4]
  inhibition of human acetylcholinesterase: inhibit
